The structures appear in SMILES notation.

For the experiment, the target named is T1, chymotrypsin-like activity of 20S proteasome (Bos taurus, UniProt Q2TBX6+Q32KL2).
T1 construct: was purified to homogeneity from bovine brain according to published methods; from tissue; host or cells: bovine brain
The experiment is described as follows: 20S proteasome chymotryptic activity inhibition assay (Suc-Leu-Leu-Val-Tyr-AMC cleavage). Format: biochemical. The conditions noted are these: 2 μg 20S proteasome from bovine brain, 50 μM fluorogenic substrate, 15 minutes at 37° C., pH7.5. On the procedure:
Compounds of this invention prepared according to the method of Example 1 were tested as follows. The 20S catalytic subunit of the proteasome (also known as the multicatalytic proteinase complex) was purified to homogeneity from bovine brain according to published methods (Wilk S. and Orlowski,M 1983, 40 842 J.Neurochem). The chymotryptic activity of the complex is measured by the increase in fluorescence following cleavage of the substrate peptide succinyl-leucine-leucine-valine-tyrosine-7-amino-4methyl coumarin. The standard in vitro assay consists of 2 μg 20S proteasome, 0.1-100 μg/ml proteasome inhibitor in 200 μl 50 mM HEPES, containing 0.1% sodium dodecyl sulphate, pH7.5. The proteolytic reaction is initiated by the addition of 50 μM flourogenic peptide substrate and allowed to progress for 15 minutes at 37° C. The reaction is terminated by the addition of 100 μL of 100 mM acetate buffer, pH4.0. The rate of proteolysis is directly proportional to the amount of liberated aminomethylcoumarin which is measured by fluorescent spectroscopy (EX 370 nm, EM 430 nm).
Turning to `CC(C)CC(NC(=O)C(=O)c1ccccc1)C(=O)NC(CC(C)C)C(=O)NCC(=O)O` (centres unmarked) [Compound 12], the “IC50 for the inhibition of the chymotrypsin-like activity of 20S proteasome” value (“IC50 for the inhibition” below) was above 10 µg/mL.
The same measure, in the same setting: to `CC(C)CC(NC(=O)C(Cc1cccnc1)NC(=O)C(=O)Cc1c[nH]c2ccccc12)C(=O)NC(C(=O)O)C(C)C` (centres unmarked) [Compound 173] belongs above 10 µg/mL; to `CCCCC(NC(=O)C(=O)Cc1c[nH]c2ccccc12)C(=O)NC(CC(C)C)C(=O)NCC(=O)O` (centres unmarked) [Compound 54], above 10 µg/mL.
On to `CC(C)CC(NC(=O)C(=O)Cc1c[nH]c2ccccc12)C(=O)NC(CC(C)C)C(=O)NCC(=O)O` (centres unmarked) [Compound 5], for which the IC50 (commonly the concentration needed to halve the response being measured) is above 20.6 µM.
On to `CC(C)CC(NC(=O)C(Cc1ccc(-c2ccccc2)cc1)NC(=O)C(=O)Cc1c[nH]c2ccccc12)C(=O)NCCC(=O)O` (centres unmarked) [Compound 188], for which the “IC50 for the inhibition” value came out at 5 µg/mL.
Still for that read-out and setting: then `CC(C)CC(NC(=O)C(=O)Cc1c[nH]c2ccccc12)C(=O)NC(CC(C)C)C(=O)NC(C)C(=O)O` (centres unmarked) [Compound 25], with above 10 µg/mL; and `CCCCC(NC(=O)C(CC(C)C)NC(=O)C(Cc1ccccc1)NC(=O)C(=O)Cc1c[nH]c2ccccc12)C(=O)O` (centres unmarked) [Compound 122], with above 10 µg/mL.
As to `CCCC[C@H](NC(=O)[C@@H](CC(C)C)NC(=O)[C@H](CC(=O)O)NC(=O)C(=O)Cc1c[nH]c2ccccc12)C(=O)O` [Compound 125], the IC50 was above 18.4 µM.
For `CC(C)CC(NC(=O)C(Cc1ccccc1)NC(=O)C(=O)Cc1c[nH]c2ccccc12)C(=O)NC(Cc1ccccc1)C(=O)O` (centres unmarked) [Compound 107], the “IC50 for the inhibition” value was above 10 µg/mL.
On the same count and under the same terms, to `CCCC(NC(=O)C(=O)Cc1c[nH]c2ccccc12)C(=O)NC(CC(C)C)C(=O)NC(C(=O)O)C(C)C` (centres unmarked) [Compound 45] belongs above 10 µg/mL; to `CCCCC(NC(=O)C(CC(C)C)NC(=O)CCNC(=O)C(=O)Cc1c[nH]c2ccccc12)C(=O)O` (centres unmarked) [Compound 120], above 10 µg/mL.
The same measure, in the same setting: to `CC(C)CC(NC(=O)CNC(=O)C(=O)Cc1c[nH]c2ccccc12)C(=O)NC(C(=O)O)C(C)C` (centres unmarked) [Compound 37] belongs above 10 µg/mL.
Still for that read-out and setting: then `CC(C)CC(NC(=O)C(Cc1ccc(-c2ccccc2)cc1)NC(=O)C(=O)Cc1c[nH]c2ccccc12)C(=O)NCC(=O)O` (centres unmarked) [Compound 171], with above 10 µg/mL; and `CC(C)CC(NC(=O)C(Cc1ccc2ccccc2c1)NC(=O)C(=O)Cc1c[nH]c2ccccc12)C(=O)NC(CCCNC(=N)N)C(=O)O` (centres unmarked) [Compound 205], with above 10 µg/mL; and `CC(C)CC(NC(=O)C(Cc1ccc(-c2ccccc2)cc1)NC(=O)C(=O)Cc1c[nH]c2ccccc12)C(=O)NC(CC(=O)O)C(=O)O` (centres unmarked) [Compound 176], with 1 µg/mL.
As for `CCC(C)C(NC(=O)C(=O)Cc1c[nH]c2ccccc12)C(=O)NC(CC(C)C)C(=O)NC(CCC(=O)O)C(=O)O` (centres unmarked) [Compound 159], the “IC50 for the inhibition” value is above 10 µg/mL.
As for `CCCCC(NC(=O)C(CC(C)C)NC(=O)C(Cc1ccc(O)cc1)NC(=O)C(=O)Cc1c[nH]c2ccccc12)C(=O)O` (centres unmarked) [Compound 128], the “IC50 for the inhibition” value is above 10 µg/mL.
Same read-out and setting: then `CC(C)CC(NC(=O)C(=O)Cc1c[nH]c2ccccc12)C(=O)NC(CC(C)C)C(=O)NC(Cc1ccc(O)cc1)C(=O)O` (centres unmarked) [Compound 36], with above 10 µg/mL.
`CC(C)C[C@@H](NC(=O)C(=O)Cc1c[nH]c2ccccc12)C(=O)N[C@H](CC(C)C)C(=O)NCc1ccccc1` [Compound 3]: the half-maximal inhibitory concentration (IC50) is above 19.3 µM.
As for `CCCC(NC(=O)C(=O)Cc1c[nH]c2ccccc12)C(=O)NC(CC(C)C)C(=O)NC(CC(=O)O)C(=O)O` (centres unmarked) [Compound 142], the “IC50 for the inhibition” value was above 10 µg/mL.

These data come from patent publication US6781000B1, “Alpha-ketoamide inhibitors of 20S proteasome” (CV Theurapeutics, Inc., priority 1998, dated 2004).
